# Data: patent US8232063B2, “H+-gated ion channel” (University of Utah Research Foundation, priority 2004, dated 2012)
# “Also recorded” adds a separate entry of the source. Like-named read-outs stand apart in the source and are kept apart here.
# Columns and labels:
# [1] = tested on: PBO-5/PBO-8 receptors; experiment: Two-electrode voltage clamp of Xenopus oocytes coinjected with PBO-5 and PBO-8 cRNA; assay type: cell-based, C. elegans; conditions: for run-down (use-dependent block) of H+-evoked current by the buffer of the extracellular solution: repeated pH 6.8 test pulses
# Procedure: (§1) Capped RNA was prepared using the T7 mMessage mMachine kit (Ambion). Xenopus oocytes were collected and coinjected with 25 ng each of PBO-5 and PBO-8 cRNA and two-electrode voltage clamp recordings were performed 3-5 days post-injection. The standard bath solution for dose-response and control I-V experiments was Ringer's (in mM): 115 NaCl, 1.8 […], 10 Bis-Tris Propane (pH 7.4 Acetic acid). For dose-response experiments, each oocyte was subjected to a 5 second application of test pH (7.0 - 5.0) with 2 minutes of pH 7.4 wash between test applications.
# Ion selectivity experiments: All points are responses to test pulse applications of pH 6.8 for 5 seconds. The reversal potential of PBO-5/PBO-8 expressing oocytes were first determined in standard Ringer's (in mM): 115 NaCl, 1.0 CaCl2, 10 Bis-Tris Propane (pH 7.4, acetic acid). For chloride permeability a simplified solution was used, chloride-free (in mM): 115 Na^+ gluconate, 1.0 CaCl2, 10 Bis-Tris Propane (pH 7.4 acetic acid). For Na^+ permeability a simplified solution was used, Na^+ free (in mM): 115 mM N-methyl D-glucamine (NMDG), 1.8 CaCl2, 10 Bis-Tris Propane (pH 7.4 acetic acid)). All solutions were brought to pH by addition of NaOH or acetic acid. To determine K^+ permeability, I-V experiments were performed in K^+ Ringer's (in mM): 115 K^+-gluconate, 1.0 CaCl2, 10 Bis-Tris Propane (pH=7.4 acetic acid). To determine Ca^2+ permeability extracellular Na^+ was lowered to 90 mM and extracellular CaCl2 was increased to 3 mM and 10 mM, compare to 1 mM Ca^2+ control. To better resolve calcium permeability, the Na^+ free solution was used except CaCl2 was increased ten-fold, 18 mM CaCl2 (in mM): 115 NMDG, 18 CaCl2, 10 Bis-Tris Propane, (pH 7.4 acetic acid). Osmolarity was measured for each solution and was maintained at 240 mOsm by the addition of sucrose. All recordings were done at room temperature. We used 3M KCl filled electrodes with a resistance between 1-3 MΩ. We used a 3M KCl agar bridge to minimize liquid junction potentials, and all liquid junctions potentials arising at the tip of the recording electrode were corrected online.
# Data analysis. Data acquisition and analysis were performed using Axograph (Axon Instruments) software, and curve fitting and statistical analysis were performed with Prism (Graphpad). Dose-response curves from individual oocytes were normalized to the maximum and minimum values and averaged for at least eleven oocytes. Normalized data were fit to the four-parameter equation derived from the Hill equation: Y=Min+(Max−Min)/(1+10(Log EC50-X)(nH)), where Max is the maximal response, Min is the response at the lowest drug concentration, X is the logarithm of agonist concentration, EC50 is the half-maximal response, and nH is the Hill coefficient. Error bars represent the standard error of the mean.
# [2] = molecular target: T1, PBO-5 homomers (Caenorhabditis elegans, UniProt G5ECT0); experiment: Two-electrode voltage clamp of Xenopus oocytes injected with PBO-5 cRNA (homomers); assay type: cell-based, C. elegans
# T1 construct: cloned into the pCR2.1 TA cloning vector (Invitrogen) and a full length clone pPD68 was generated; expressed in transfected cells; host or cells: Xenopus oocytes injected with PBO-5 cRNA (pSGEM-based plasmid pAB20)
# T1 sequence (G5ECT0 22-504 isoform G5ECT0-2 limits assumed): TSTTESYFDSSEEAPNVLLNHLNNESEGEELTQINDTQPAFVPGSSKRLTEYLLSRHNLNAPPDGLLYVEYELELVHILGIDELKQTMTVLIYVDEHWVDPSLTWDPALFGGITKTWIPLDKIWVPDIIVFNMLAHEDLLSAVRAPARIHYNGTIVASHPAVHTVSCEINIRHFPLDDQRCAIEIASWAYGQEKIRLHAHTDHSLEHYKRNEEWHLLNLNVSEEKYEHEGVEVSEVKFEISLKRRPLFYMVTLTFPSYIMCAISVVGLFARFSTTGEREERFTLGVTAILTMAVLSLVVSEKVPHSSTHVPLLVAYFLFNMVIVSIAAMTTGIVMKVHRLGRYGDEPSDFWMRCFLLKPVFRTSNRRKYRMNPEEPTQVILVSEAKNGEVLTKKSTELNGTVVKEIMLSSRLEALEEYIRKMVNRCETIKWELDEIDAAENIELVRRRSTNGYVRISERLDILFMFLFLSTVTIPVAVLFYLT
# Procedure: as §1
# To determine if PBO-5 can form a homo-oligomeric receptor, we injected PBO-5 cRNA in Xenopus oocytes. […] Two-electrode voltage clamp recordings were used to assay receptor functionality.
# To determine if PBO-5 and PBO-8 can co-assemble to form a functional receptor, we injected PBO-5 and PBO-8 cRNA into Xenopus oocytes. […] To determine the possible signal that mediates posterior body contraction we examined the pbo-4 gene.
# [3] = tested on: PBO-8 homomers; experiment: Two-electrode voltage clamp of Xenopus oocytes injected with PBO-8 cRNA (homomers); assay type: cell-based, C. elegans
# [4] = tested on: posterior body contraction; experiment: Posterior body contraction of the defecation cycle in vivo; set-up: species or system C. elegans; conditions: 100 mM, pH 7.2, injected into pseudocoelomic space
# Procedure: To determine if H^+ ions are required to initiate a posterior body contraction endogenous acidification of the pseudocoelomic space is blocked. For example, 100 mM Bis-Tris Propane buffered saline (pH 7.2) is injected into the pseudocoelomic space of an animal and defecation cycles postinjection observed. […] The injected animals should phenocopy both pbo-4 and pbo-5 mutants.
# Alternatively, a caged buffer is used to assay the requirement for H^+ activation of PBO-5/PBO-8 receptors in vivo. For example, animals are injected with a caged buffer (Molecular Probes) and the buffer uncaged, by flash photolysis, as a posterior body contraction is about to occur. An advantage of the latter scheme is that an animal can be injected first and then observed for a number of cycles to determine if it retains normal defecation cycles, and in particular posterior body contractions. After quantification of a number of defecation cycles, the buffer is uncaged and the animal observed for a specific loss of posterior body contraction. Li addition, the inverse experiment, where caged protons are injected, may be conducted to elicit an out of phase posterior body contraction by uncaging the protons during the intercycle.
# The posterior body contraction occurs via a calcium-regulated mechanism. […]
# [5] = Xenopus oocytes, two-electrode voltage clamp
compound,measurement,setting,value
"NCCCC(=O)O [GABA, γ-aminobutyric acid]",co-activation: pH 6.8 plus ligand compared with pH 6.8 only application,"[1]; 1 mM ligand, pH 6.8",not significantly different
same,activation of PBO-5/PBO-8 heteromers,[1]; [5],lacked the ability to activate
same,activation of PBO-5 homomers (functional response),[2],failed to elicit a functional response; also recorded: lacked the ability to activate
same,activation of PBO-8 homomers,[3],lacked the ability to activate
[Ca+2] [Ca^2+],maximal activation of PBO-5/PBO-8 on increasing extracellular Ca2+,[1]; pH 6.0,no effect on maximal activation
same,effect of extracellular Ca2+ on gating of PBO-5/PBO-8 (mode of action),"[1]; pH 6.8, 10.0 mM vs 1.0 mM Ca2+",inhibit gating; also recorded: competitive antagonist
same,H-evoked responses compared to 1 mM Ca2+ control,"[1]; pH 7.0 and 6.8, Ca2+ increased to 3 mM and 10 mM",significantly reduced
[1H+] [H^+],pH50,[1]; 1 mM Ca2+ control conditions,6.88
same,pH50,[1]; 10 mM Ca2+ test conditions,6.59
same,activation of PBO-5/PBO-8 heteromers,[1]; [5],sufficient to activate
same,pH of 10% maximal activation,[1]; perfusion buffer pH 7.4,~7.0
same,pH50 (half-maximal activation),"[1]; voltage-clamped at -60 mV, test pH 5 seconds, standard Ringer's, n=18",6.83±0.01
NCCc1c[nH]c2ccc(O)cc12 [serotonin],activation of PBO-5/PBO-8 heteromers,[1]; [5],lacked the ability to activate
same,activation of PBO-5 homomers (functional response),[2],failed to elicit a functional response
same,activation of PBO-5 homomers (functional response),[2]; listed as 5-HT,lacked the ability to activate
same,activation of PBO-8 homomers,[3],lacked the ability to activate
"O=S(=O)(O)CCN1CCN(CCO)CC1 [HEPES, N-2-hydroxyethylpiperazine-N′-2-ethanesulfonic acid]",run-down (use-dependent block) of H+-evoked current by the buffer of the extracellular solution,[1],very rapid rundown; also recorded: inhibitory to the receptor
NCC(=O)O [glycine],activation of PBO-5/PBO-8 heteromers,[1],lacked the ability to activate
same,activation of PBO-5 homomers (functional response),[2],failed to elicit a functional response; also recorded: lacked the ability to activate
same,activation of PBO-8 homomers,[3],lacked the ability to activate
"OCC(CO)(CO)NCCCNC(CO)(CO)CO [Bis-Tris Propane, 1,3-Bis[tris(hydroxymethyl)methylamino) propane]",run-down (use-dependent block) of H+-evoked current by the buffer of the extracellular solution,[1],did not cause current run-down
same,posterior body contraction after injection of buffered saline into the pseudocoelomic space,[4],fail to initiate a posterior body contraction
d-tubocurare,pharmacological block of PBO-5/8 responses,[1]; cholinergic antagonist applied to PBO-5/8 expressing cells,all attempts to pharmacologically block PBO-5/8 responses failed
"O=S(=O)(O)CCN1CCOCC1 [MES, 2-(N-Morpholino)-ethanesulfonic acid]",run-down (use-dependent block) of H+-evoked current by the buffer of the extracellular solution,[1],did not cause current run-down
N[C@@H](CCC(=O)O)C(=O)O [glutamate],activation of PBO-5/PBO-8 heteromers,[1]; [5],lacked the ability to activate
same,activation of PBO-5 homomers (functional response),[2],lacked the ability to activate
same,activation of PBO-8 homomers,[3],lacked the ability to activate
N=C(N)NC(=O)c1nc(Cl)c(N)nc1N [amiloride],block of PBO-5/8 gating,[1]; 1 mm amiloride,did not result current block
